In ChEMBL document CHEMBL4002639, “DL-3-n-butylphthalide-Edaravone hybrids as novel dual inhibitors of amyloid-β aggregation and monoamine oxidases with high antioxidant potency for Alzheimer's therapy” (Bioorg Med Chem Lett, 2017):
Calls of active or inactive are those of the source. The calls are words filed in the database; no cut-off is given here.

How the values were obtained:
Homo sapiens = species: Homo sapiens; experiment: Selectivity index, ratio of IC50 for recombinant human MAO-A to IC50 for recombinant human MAO-B
[1] = target: T1, Amine oxidase [flavin-containing] A (Homo sapiens, UniProt P21397); experiment: Inhibition of recombinant human MAO-A using kynuramine as substrate after 30 mins by fluorescence assay
T1 sequence (P21397 whole entry): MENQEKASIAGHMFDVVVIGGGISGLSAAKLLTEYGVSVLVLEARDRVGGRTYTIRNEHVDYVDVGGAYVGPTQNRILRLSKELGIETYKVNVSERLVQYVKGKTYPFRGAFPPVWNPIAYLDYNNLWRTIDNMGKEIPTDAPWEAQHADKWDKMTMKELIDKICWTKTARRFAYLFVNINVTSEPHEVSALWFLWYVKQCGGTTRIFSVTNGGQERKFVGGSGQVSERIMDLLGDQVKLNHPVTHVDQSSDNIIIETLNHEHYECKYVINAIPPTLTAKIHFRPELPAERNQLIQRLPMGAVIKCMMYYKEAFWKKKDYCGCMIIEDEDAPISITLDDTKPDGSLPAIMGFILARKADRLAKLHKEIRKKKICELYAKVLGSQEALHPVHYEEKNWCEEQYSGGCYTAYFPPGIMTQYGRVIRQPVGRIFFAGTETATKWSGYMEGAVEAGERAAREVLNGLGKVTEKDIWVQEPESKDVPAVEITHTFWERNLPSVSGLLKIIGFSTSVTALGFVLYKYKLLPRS

[2] = target: T2, Amine oxidase [flavin-containing] B (Homo sapiens, UniProt P27338)
T2 sequence (P27338 whole entry): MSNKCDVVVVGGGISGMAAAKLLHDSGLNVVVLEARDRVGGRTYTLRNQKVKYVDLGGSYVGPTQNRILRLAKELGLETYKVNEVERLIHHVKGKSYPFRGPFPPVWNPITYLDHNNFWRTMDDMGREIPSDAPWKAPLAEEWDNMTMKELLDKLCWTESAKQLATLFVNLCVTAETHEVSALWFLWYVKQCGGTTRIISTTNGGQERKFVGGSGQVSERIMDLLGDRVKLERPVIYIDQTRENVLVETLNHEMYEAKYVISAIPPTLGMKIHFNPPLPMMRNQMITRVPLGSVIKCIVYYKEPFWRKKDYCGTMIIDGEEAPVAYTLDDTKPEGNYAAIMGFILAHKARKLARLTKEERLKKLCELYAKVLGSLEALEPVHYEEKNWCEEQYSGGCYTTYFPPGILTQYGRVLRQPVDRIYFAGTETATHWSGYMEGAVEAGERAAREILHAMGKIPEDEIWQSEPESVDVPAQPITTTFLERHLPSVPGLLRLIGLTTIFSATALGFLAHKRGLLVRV
Description: Inhibition of recombinant human MAO-B using kynuramine as substrate after 30 mins by fluorescence assay

[3] = target: Amyloid-beta precursor protein (Homo sapiens) (UniProt P05067); experiment: Inhibition of self-induced Amyloid beta (1 to 42) (unknown origin) aggregation at 25 uM after 24 hrs by thioflavin T-based fluorometric assay relative to control
Chain of Amyloid-beta precursor protein (Homo sapiens) (P05067 whole entry): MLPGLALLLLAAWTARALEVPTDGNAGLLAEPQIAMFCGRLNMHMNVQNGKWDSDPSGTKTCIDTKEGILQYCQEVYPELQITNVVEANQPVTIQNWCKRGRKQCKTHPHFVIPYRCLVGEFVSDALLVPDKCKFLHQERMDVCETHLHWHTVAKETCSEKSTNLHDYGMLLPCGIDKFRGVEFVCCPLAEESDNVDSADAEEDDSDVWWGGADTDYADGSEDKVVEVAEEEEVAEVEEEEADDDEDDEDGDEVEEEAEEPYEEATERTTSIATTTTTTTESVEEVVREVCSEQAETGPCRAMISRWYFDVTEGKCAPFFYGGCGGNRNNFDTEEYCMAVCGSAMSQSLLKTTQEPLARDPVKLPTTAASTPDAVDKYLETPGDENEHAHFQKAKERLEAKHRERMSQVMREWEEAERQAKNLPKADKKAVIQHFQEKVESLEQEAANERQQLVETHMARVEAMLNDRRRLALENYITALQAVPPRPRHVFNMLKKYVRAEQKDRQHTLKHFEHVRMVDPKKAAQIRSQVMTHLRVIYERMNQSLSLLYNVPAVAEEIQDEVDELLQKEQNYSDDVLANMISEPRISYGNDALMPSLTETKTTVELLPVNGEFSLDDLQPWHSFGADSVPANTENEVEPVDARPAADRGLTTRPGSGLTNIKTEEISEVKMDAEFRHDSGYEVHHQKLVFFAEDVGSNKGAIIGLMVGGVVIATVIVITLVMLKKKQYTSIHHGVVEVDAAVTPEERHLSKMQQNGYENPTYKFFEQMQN

[4] = Antioxidant activity assessed as trolox equivalent of AAPH radical scavenging activity at 1 uM preincubated for 15 mins followed by AAPH addition measured every min for 90 mins by ORAC-FL assay; format: functional
[5] = target: T2, Amine oxidase [flavin-containing] B; experiment: Inhibition of recombinant human MAO-B at 10 uM using kynuramine as substrate after 30 mins by fluorescence assay; conditions: 0.5 h
[6] = target: T1, Amine oxidase [flavin-containing] A; experiment: Inhibition of recombinant human MAO-A at 10 uM using kynuramine as substrate after 30 mins by fluorescence assay; conditions: 0.5 h

Row | SMILES | Ratio IC50 (Homo sapiens) | IC50 [1] [µM] | IC50 [2] [µM] | inhibition [3] | Activity [4] [µMequiv/µM] | inhibition at 10 µM [5] [%] | inhibition at 10 µM [6] [%]
1 | CCCCCC1OC(=O)c2cc(N3N=C(C)CC3=O)ccc21 (stereo unspecified) | 1.5 | 19.3 | 12.9 | 50.1 to 71.5% | 0.62 |  | 
2 | COc1cc(/C=C/C(=O)CC(=O)/C=C/c2ccc(O)c(OC)c2)ccc1O |  |  |  | 39% |  |  | 
3 | CCCCC1OC(=O)c2cc(-n3nc(C(F)(F)F)cc3O)ccc21 (stereo unspecified) |  |  |  | 50.1 to 71.5% | 2.22 |  | 
4 | CCCCC1OC(=O)c2ccccc21 (racemic) [RAC-3-N-BUTYLPHTHALIDE] |  |  |  | 1.2% | 0.21 | 18.2 | 11.2
5 | CCCCC1OC(=O)c2cc(N3N=C(C)CC3=O)ccc21 (stereo unspecified) |  |  |  | 50.1 to 71.5% | 1.03 |  | 
6 | CCCCCCC1OC(=O)c2cc(N3N=C(C)CC3=O)ccc21 (stereo unspecified) | 2 | 15.2 | 7.59 | 50.1 to 71.5% | 0.85 |  | 
7 | CCCCCCC1OC(=O)c2cc(-n3nc(C(F)(F)F)cc3O)ccc21 (stereo unspecified) |  |  |  | inactive | 2.28 |  | 
8 | CC1=NN(c2ccccc2)C(=O)C1 [EDARAVONE] |  |  |  | 20.1% | 0.72 | 7.29 | < 5
9 | CCCCCCCC1OC(=O)c2cc(-n3nc(C(F)(F)F)cc3O)ccc21 (stereo unspecified) |  |  |  | inactive | 2.21 |  | 
10 | CCCCCC1OC(=O)c2cc(-n3nc(C(F)(F)F)cc3O)ccc21 (stereo unspecified) |  |  |  | inactive | 2.37 |  | 
11 | CCCCCCCC1OC(=O)c2cc(N3N=C(C)CC3=O)ccc21 (stereo unspecified) |  |  |  | 71.5% | 1.18 |  | 
